The source made the active and inactive calls. The rule behind the calls is not given here.
Tests used:
[1] = biological target: Hypoxia-inducible factor 1-alpha (Homo sapiens) (UniProt Q16665); test: Induction of HIF-1alpha degradation in human HeLa cells assessed as reduction in CA9 protein expression upto 100 uM incubated for 12 hrs under hypoxia condition by Western blot analysis; assay type: cell-based
[2] = Inhibition of recombinant luciferase (unknown origin) incubated for 10 mins by luminescence based microplate reader analysis
HeLa [3] = test: Effect on HSP70 protein expression in human HeLa cells at 30 to 100 uM measured after 24 hrs by Western blot analysis; assay type: functional, cell-based; settings: dose 30-100 µM
Heat shock protein HSP90 [4] = biological target: T1, Heat shock protein HSP90 (Homo sapiens, UniProt P07900+P08238); test: Inhibition of HSP90 in human HeLa cells assessed as reduction in CDK4 protein expression at 30 to 100 uM measured after 24 hrs by Western blot analysis; assay type: cell-based; settings: dose 30-100 µM
Heat shock protein HSP90 [5] = biological target: T1, Heat shock protein HSP90; test: Inhibition of recombinant human HSP90 ATPase activity expressed in Escherichia coli BL21 incubated for 3 hrs in presence of ATP by malachite green dye based microplate reader analysis
Heat shock protein HSP90 [6] = biological target: T1, Heat shock protein HSP90; test: Inhibition of HSP90 in human HeLa cells assessed as reduction in p70s6k phosphorylation at 30 to 100 uM measured after 12 hrs by Western blot analysis; assay type: cell-based; settings: dose 30-100 µM
[7] = Effect on HSP90 protein expression in human HeLa cells assessed as fold change at 100 uM measured after 24 hrs by immunoblotting analysis (reference value: 1); assay type: functional
Heat shock protein HSP90 [8] = biological target: T1, Heat shock protein HSP90; test: Inhibition of recombinant human HSP90 expressed in Escherichia coli BL21 assessed as increase in DTT induced insulin aggregation by measuring increase in absorbance at 100 uM pre-incubated for 1 hrs followed by DTT addition by microplate reader analysis
[9] = Downregulation of p-AKT protein expression in human Hela cells assessed as fold change at 100 uM measured after 24 hrs by immunoblotting analysis (reference value: 1); assay type: functional
[10] = biological target: T2, Heat shock factor protein 1 (Homo sapiens) (UniProt Q00613); test: Activation of HSF1 in human HeLa cells assessed as increase in HSP47 mRNA expression at 100 uM measured after 12 hrs by Real-time PCR assay; assay type: cell-based
T2 sequence (whole entry): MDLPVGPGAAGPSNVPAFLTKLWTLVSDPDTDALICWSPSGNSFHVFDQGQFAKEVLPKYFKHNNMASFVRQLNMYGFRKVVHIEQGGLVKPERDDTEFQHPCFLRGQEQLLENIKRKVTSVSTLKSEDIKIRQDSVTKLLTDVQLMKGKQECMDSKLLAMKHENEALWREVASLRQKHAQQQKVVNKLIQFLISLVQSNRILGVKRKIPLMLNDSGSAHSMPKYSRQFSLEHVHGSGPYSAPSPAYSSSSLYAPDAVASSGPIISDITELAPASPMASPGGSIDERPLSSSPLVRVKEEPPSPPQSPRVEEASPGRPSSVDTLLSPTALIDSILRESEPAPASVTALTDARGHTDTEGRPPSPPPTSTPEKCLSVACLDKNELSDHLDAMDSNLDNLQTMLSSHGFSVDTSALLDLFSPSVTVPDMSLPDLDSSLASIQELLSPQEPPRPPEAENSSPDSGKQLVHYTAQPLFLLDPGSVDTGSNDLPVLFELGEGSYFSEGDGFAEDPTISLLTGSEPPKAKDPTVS

Heat shock protein HSP90 [11] = biological target: T1, Heat shock protein HSP90; test: Inhibition of HSP90 in human HeLa cells assessed as reduction in ERK phosphorylation at 30 to 100 uM measured after 12 hrs by Western blot analysis; assay type: cell-based; settings: dose 30-100 µM
HeLa [12] = test: Effect on CA9 mRNA expression in human HeLa cells at 100 uM pre-incubated for 1 hr followed by incubation at hypoxic condition for 12 hrs by RT-PCR assay; assay type: functional, cell-based; settings: time 13.0 hrs
[13] = biological target: Hypoxia-inducible factor 1-alpha (Homo sapiens) (UniProt Q16665); test: Induction of HIF-1alpha degradation in human HeLa cells assessed as reduction in HIF-1alpha accumulation upto 100 uM incubated for 12 hrs under hypoxia condition by Western blot analysis; assay type: cell-based
[14] = Effect on HSP70 protein expression in human HeLa cells assessed as fold change at 100 uM measured after 24 hrs by immunoblotting analysis (reference value: 1); assay type: functional
[15] = biological target: T2, Heat shock factor protein 1 (Homo sapiens); test: Activation of HSF1 in human HeLa cells assessed as increase in HSP27 mRNA expression at 100 uM measured after 12 hrs by Real-time PCR assay; assay type: cell-based
HeLa [16] = test: Effect on HIF-1alpha mRNA expression in human HeLa cells at 1 to 100 uM pre-incubated for 1 hr followed by incubation at hypoxic condition for 12 hrs by semi-quantitative RT-PCR assay; assay type: functional, cell-based; settings: dose 1-100 µM, time 13.0 hrs
HeLa [17] = test: Effect on CA9 mRNA expression in human HeLa cells at 1 to 100 uM pre-incubated for 1 hr followed by incubation at hypoxic condition for 12 hrs by semi-quantitative RT-PCR assay; assay type: functional, cell-based; settings: dose 1-100 µM, time 13.0 hrs
HeLa [18] = test: Effect on HSP90 protein expression in human HeLa cells at 30 to 100 uM measured after 24 hrs by Western blot analysis; assay type: functional, cell-based; settings: dose 30-100 µM
[19] = Effect on HSF1 protein expression in human HeLa cells assessed as fold change at 100 uM measured after 24 hrs by immunoblotting analysis (reference value: 1); assay type: functional
[20] = Inhibition of HIF-1 mediated gene transcription activity in human HeLa cells co-expressing HRE dependent firefly luciferase reporter gene pre-incubated for 1 hrs followed by incubation at hypoxic condition for 12 hrs by luciferase reporter gene assay; assay type: cell-based
HeLa [21] = test: Anticancer activity against human HeLa cells assessed as cell growth inhibition measured after 72 hrs by MTT assay; assay type: functional, cell-based
Heat shock protein HSP90 [22] = biological target: T1, Heat shock protein HSP90; test: Inhibition of HSP90 in human HeLa cells assessed as reduction in AKT phosphorylation at 30 to 100 uM measured after 12 hrs by Western blot analysis; assay type: cell-based; settings: dose 30-100 µM
HeLa [23] = test: Effect on HIF-1alpha mRNA expression in human HeLa cells at 100 uM pre-incubated for 1 hr followed by incubation at hypoxic condition for 12 hrs by RT-PCR assay; assay type: functional, cell-based; settings: time 13.0 hrs
[24] = biological target: T2, Heat shock factor protein 1 (Homo sapiens); test: Activation of HSF1 in human HeLa cells assessed as increase in HSP70 mRNA expression at 100 uM measured after 12 hrs by Real-time PCR assay; assay type: cell-based
[25] = Effect on CDK4 protein expression in human HeLa cells assessed as fold change at 100 uM measured after 24 hrs by immunoblotting analysis (reference value: 1); assay type: functional
[26] = Downregulation of CDK4 protein expression in human Hela cells assessed as fold change at 10 uM measured after 24 hrs by immunoblotting analysis (reference value: 1); assay type: functional
[27] = Effect on HSP90 protein expression in human HeLa cells assessed as fold change at 10 uM measured after 24 hrs by immunoblotting analysis (reference value: 1); assay type: functional
[28] = Effect on HSF1 protein expression in human HeLa cells assessed as fold change at 10 uM measured after 24 hrs by immunoblotting analysis (reference value: 1); assay type: functional
[29] = biological target: T2, Heat shock factor protein 1 (Homo sapiens); test: Activation of HSF1 in human HeLa cells assessed as increase in HSP27 mRNA expression at 10 uM measured after 12 hrs by Real-time PCR assay; assay type: cell-based; settings: filed as activator
[30] = Effect on HSP70 protein expression in human HeLa cells assessed as fold change at 10 uM measured after 24 hrs by immunoblotting analysis (reference value: 1); assay type: functional
[31] = Downregulation of p-AKT protein expression in human Hela cells assessed as fold change at 10 uM measured after 24 hrs by immunoblotting analysis (reference value: 1); assay type: functional
[32] = biological target: T2, Heat shock factor protein 1 (Homo sapiens); test: Activation of HSF1 in human HeLa cells assessed as increase in HSP47 mRNA expression at 10 uM measured after 12 hrs by Real-time PCR assay; assay type: cell-based; settings: filed as activator
[33] = biological target: T2, Heat shock factor protein 1 (Homo sapiens); test: Activation of HSF1 in human HeLa cells assessed as increase in HSP70 mRNA expression at 10 uM measured after 12 hrs by Real-time PCR assay; assay type: cell-based; settings: filed as activator

Hypoxia-inducible factor 1-alpha (Homo sapiens), sequence (Q16665 whole entry, looked up): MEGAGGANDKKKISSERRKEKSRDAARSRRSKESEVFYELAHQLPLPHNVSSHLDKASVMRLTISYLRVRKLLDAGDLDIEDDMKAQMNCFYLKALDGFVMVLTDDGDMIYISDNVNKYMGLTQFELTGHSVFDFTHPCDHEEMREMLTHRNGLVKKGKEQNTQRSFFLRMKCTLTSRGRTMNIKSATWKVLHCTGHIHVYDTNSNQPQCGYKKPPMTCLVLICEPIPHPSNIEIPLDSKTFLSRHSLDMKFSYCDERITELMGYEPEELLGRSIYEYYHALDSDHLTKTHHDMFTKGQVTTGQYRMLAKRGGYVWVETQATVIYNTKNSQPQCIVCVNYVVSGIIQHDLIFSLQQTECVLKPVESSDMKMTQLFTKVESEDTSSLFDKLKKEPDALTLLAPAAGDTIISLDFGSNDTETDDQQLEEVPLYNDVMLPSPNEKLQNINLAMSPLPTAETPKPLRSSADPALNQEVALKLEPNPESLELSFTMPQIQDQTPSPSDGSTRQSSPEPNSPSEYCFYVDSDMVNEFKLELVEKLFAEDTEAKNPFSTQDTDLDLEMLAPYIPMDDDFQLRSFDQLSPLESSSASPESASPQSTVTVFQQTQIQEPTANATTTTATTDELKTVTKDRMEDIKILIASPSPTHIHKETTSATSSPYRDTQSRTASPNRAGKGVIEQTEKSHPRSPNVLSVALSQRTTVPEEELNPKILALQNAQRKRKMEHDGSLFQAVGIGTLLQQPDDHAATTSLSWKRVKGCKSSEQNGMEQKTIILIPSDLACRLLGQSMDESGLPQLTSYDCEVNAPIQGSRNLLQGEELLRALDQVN

Structure (SMILES)	Activity [1]	inhibition [2]	Activity (HeLa [3])	inhibition (Heat shock protein HSP90 [4])	inhibition (Heat shock protein HSP90 [6])	fold change (FC) [7]	inhibition (Heat shock protein HSP90 [8])	Activity [10]	inhibition (Heat shock protein HSP90 [11])	Activity (HeLa [12])	Activity [13]	fold change (FC) [14]	Activity [15]	Activity (HeLa [16])	Activity (HeLa [17])	Activity (HeLa [18])	fold change (FC) [19]	IC50 [20] [µM]	IC50 (HeLa [21]) [µM]	inhibition (Heat shock protein HSP90 [22])	further results
CC(C)COC(=O)C1=C(O)[C@H](C(=O)OCC(C)C)[C@@]2(O)[C@H](C(=O)OCC(C)C)[C@H](C)C[C@H]1[C@@H]2C(=O)O	Active	Active	inactive	Active	Active	0.96	inactive	inactive	Active	Active	Active	0.99	inactive	inactive	Active	inactive	0.98	50.6	18.8	Active	IC50 (Heat shock protein HSP90 [5]): 95 µM; fold change (FC) [9]: 0.51; Activity (HeLa [23]): inactive; Activity [24]: inactive; fold change (FC) [25]: 0.6
CCCC[C@@H]1C[C@@H]2C(C(=O)OCC(C)C)=C(O)[C@H](C(=O)OC)[C@@](O)([C@@H]1C(=O)OC)[C@H]2C(=O)O	Active	Active	inactive	Active	Active	0.97	inactive	inactive	Active	Active	Active	0.95	inactive	inactive	Active	inactive	1.02	70.4	40.1	Active	fold change (FC) [9]: 0.82; Activity (HeLa [23]): inactive; Activity [24]: inactive; fold change (FC) [25]: 0.78
CCCC[C@@H]1C[C@@H]2C(C(=O)OCC(C)C)=C(O)[C@H](C(=O)OC)[C@@](O)([C@@H]1C(=O)OCC(C)C)[C@H]2C(=O)O	–	–	–	–	–	–	–	–	–	–	–	–	–	–	–	–	–	> 100	22.6	–	–
CCCC[C@@H]1C[C@@H]2C(C(=O)OCC(C)C)=C(O)[C@H](C(=O)OCC(C)C)[C@@](O)([C@@H]1C(=O)OCC(C)C)[C@H]2C(=O)O	Active	Active	inactive	Active	Active	0.95	inactive	inactive	Active	Active	Active	0.97	inactive	inactive	Active	inactive	0.9	36.3	18.6	Active	IC50 (Heat shock protein HSP90 [5]): 45.8 µM; Activity (HeLa [23]): inactive; Activity [24]: inactive; fold change (FC) [25]: 0.52
CCCC[C@@H]1C[C@@H]2C(C(=O)OC)=C(O)[C@H](C(=O)OC)[C@@](O)([C@@H]1C(=O)OC)[C@H]2C(=O)O	–	–	–	–	–	–	–	–	–	–	–	–	–	–	–	–	–	> 100	44.8	–	–
COC1=C2C[C@@H](C)C[C@H](OC)[C@H](O)[C@@H](C)/C=C(\C)[C@H](OC(N)=O)[C@@H](OC)/C=C\C=C(/C)C(=O)NC(=CC1=O)C2=O [GELDANAMYCIN]	–	–	–	–	–	–	–	–	–	–	–	–	–	–	–	–	–	–	–	–	fold change (FC) [26]: 0.71; fold change (FC) [27]: 0.93; fold change (FC) [28]: 1.06; Activity [29]: Active; fold change (FC) [30]: 1.96; fold change (FC) [31]: 0.7; Activity [32]: Active; Activity [33]: Active
CCCC[C@@H]1C[C@@H]2C(C(=O)OCC(C)C)=C(O)[C@H](C(=O)OCC(C)C)[C@@](O)([C@@H]1C(=O)OCC(C)C)[C@H]2C(=O)OCC(C)C	–	–	–	–	–	–	–	–	–	–	–	–	–	–	–	–	–	> 100	72.7	–	–
COC(=O)C1=C(O)[C@H](C(=O)OC)[C@@]2(O)[C@H](C(=O)OC)[C@H](C)C[C@H]1[C@@H]2C(=O)O	–	–	–	–	–	–	–	–	–	–	–	–	–	–	–	–	–	> 100	> 100	–	–
